According to article PMC4896225 (Journal of immunology (Baltimore, Md. : 1950), 2016):

Biological target: gp96 (Canis lupus, UniProt P41148)
Test: gamma-32P ATP ATPase assay with purified gp96
Assay type: biochemical

Chain of gp96 (P41148 22-804): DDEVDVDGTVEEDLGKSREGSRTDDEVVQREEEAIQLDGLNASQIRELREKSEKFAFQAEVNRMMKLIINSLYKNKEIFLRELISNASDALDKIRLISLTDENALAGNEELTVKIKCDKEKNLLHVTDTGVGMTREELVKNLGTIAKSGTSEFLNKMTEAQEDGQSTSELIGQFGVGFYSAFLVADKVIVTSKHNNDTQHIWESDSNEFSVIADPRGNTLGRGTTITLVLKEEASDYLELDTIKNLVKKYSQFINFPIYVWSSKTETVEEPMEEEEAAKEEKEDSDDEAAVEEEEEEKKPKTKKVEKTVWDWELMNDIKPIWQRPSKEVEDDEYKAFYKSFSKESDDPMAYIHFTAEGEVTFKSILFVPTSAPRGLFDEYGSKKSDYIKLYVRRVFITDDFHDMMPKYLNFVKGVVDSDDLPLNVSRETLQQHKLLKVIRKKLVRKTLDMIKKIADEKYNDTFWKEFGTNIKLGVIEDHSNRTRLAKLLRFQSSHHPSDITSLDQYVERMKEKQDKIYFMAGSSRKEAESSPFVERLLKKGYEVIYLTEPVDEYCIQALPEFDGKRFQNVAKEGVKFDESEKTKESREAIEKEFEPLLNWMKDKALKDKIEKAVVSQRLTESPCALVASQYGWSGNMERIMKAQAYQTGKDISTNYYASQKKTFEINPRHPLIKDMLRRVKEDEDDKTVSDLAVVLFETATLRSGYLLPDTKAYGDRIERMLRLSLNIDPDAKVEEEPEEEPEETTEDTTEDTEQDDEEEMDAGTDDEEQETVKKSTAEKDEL

With `C/C(=N\NC(=N)N)c1cc(NC(=O)CCCCCCCCC(=O)Nc2cc(/C(C)=N/NC(=N)N)cc(/C(C)=N/NC(=N)N)c2)cc(/C(C)=N/NC(=N)N)c1` [Semapimod, N, N’-bis [3,5-diacetylphenyl] decanediamide tetrakis [amidinohydrazone]] the IC50 was roughly 0.3 µM.
